Consider 88 molecules from PubChem BioAssay AID1324 (NMMLSC, 2008).

Active and inactive are the calls of the source. The rule behind the calls is not given here.

For one assay, the target named is glutathione S-transferase (GST-GSH binding). Kind of assay: GST–glutathione interaction disruption – biochemical, multiplex beads, flow cytometry, HPSMTB buffer, profiling panel (AID 1324).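 Note: glutathione beads loaded with GST-green fluorescent protein and no fluorescent Bim peptide.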 The note with it: multiplex bead flow cytometry, MCF. A general note: In flow cytometry, cells or beads pass a laser one at a time.
A word on the EC50: it is the concentration at which the effect is half-maximal. For `CCOC(=O)c1c2c3c(cccc3[nH]c1=O)C(=O)c1ccccc1-2`, the EC50 entry was “inactive”.

Take `c1ccc(Nc2cccc(Nc3ccccc3)n2)cc1`: the EC50 entry is “inactive”.

For the molecule `O=C(Nc1ccc2nc(-c3ccco3)c(-c3ccco3)nc2c1)NC1CC1`, the EC50 was 8.3 µM.

On to `O=[N+]([O-])c1ccc(N/N=C/c2ccc(O)c(O)c2O)c(S(=O)(=O)N2CCOCC2)c1`, for which the EC50 result was “inactive”.

Still in this assay, the particulars now being: multiplex bead flow cytometry, MCF, stronger effect = higher value, concentration not given here.
In the case of `O=C(CSc1nnc(-c2cccs2)n1Cc1ccco1)c1ccc2c(c1)OCO2`, the percent span inhibition result was “inactive”.

Regarding `CN1C(=O)/C(=C/c2ccc(-c3ccccc3[N+](=O)[O-])o2)SC1=Nc1ccc(Cl)c(C(=O)O)c1`, the percent span inhibition entry is “inactive”.

As for `COc1ccc2nc(C)cc(SCC(=O)N/N=C/c3ccc(O)c(O)c3)c2c1`, the percent span inhibition entry is “inactive”.

In the case of `C#CCOCCOCCOCCNc1nc(N2CCN(C(=O)[C@H](CCCCN)n3cc(CCCC)nn3)CC2)nc(N2CCN(C(=O)[C@H](Cc3ccc(O)cc3)n3cc(CCO)nn3)CC2)n1`, the percent span inhibition entry is “inactive”.

For `Cc1ccc(N=Cc2c(O)n(-c3ccc4c(c3)OCO4)c(=O)c3ccccc23)cc1`, the percent span inhibition result was “inactive”.

For the molecule `O=C(Nc1cccc(C(F)(F)F)c1)c1ccc2nc(-c3ccco3)c(-c3ccco3)nc2c1`, the percent span inhibition entry was “inactive”.

Consider `Cc1nnc(Sc2cc(NCCO)c([N+](=O)[O-])c3nonc23)s1`, for which the percent span inhibition result is “inactive”.

For the molecule `CCOc1cccc(CNc2ccc(O)cc2)c1OCc1ccccc1Cl`, the percent span inhibition entry is “inactive”.

Consider `N=C1C(c2nc3ccccc3s2)=C(O)CN1Cc1ccccc1`, for which the percent span inhibition result was “inactive”.

Regarding `S=C(Nc1ccccc1)N1CCn2cccc2C1c1cccnc1` (stereo not drawn), the percent span inhibition result was “inactive”.

For the molecule `CC1Nc2ccccc2C(=O)N1NS(C)(=O)=O` (stereo not drawn), the percent span inhibition result was “inactive”.

Take `COc1cccc2c1C(=O)C=C(C)C2=O`: the percent span inhibition result was “inactive”.

On to `CCOC(=O)c1sc(NC(=O)c2ccncc2)c(C#N)c1C`, for which the percent span inhibition result was “inactive”.

In the case of `OC(CNC1CCCCC1)COCCOc1ccc(Br)cc1` (stereo not drawn), the percent span inhibition entry is “inactive”.

With `COc1ccc2cc(CN(CCc3ccccc3)Cc3nnnn3CC3CCCO3)c(=O)[nH]c2c1` (stereo not drawn), the percent span inhibition result was “inactive”.

Take `CCC(=O)OCCNc1cc(Sc2nc3ccccc3[nH]2)c2nonc2c1[N+](=O)[O-]`: the percent span inhibition result was “inactive”.

For `O=C1NC(=O)C(=Cc2ccc(-c3cc(Cl)ccc3[N+](=O)[O-])o2)C(=O)N1`, the percent span inhibition entry was “inactive”.

`CCOc1ccccc1/C=N/NC(=O)CNC(=O)COc1ccccc1`: the percent span inhibition result is “inactive”.

Take `C=CS(=O)(=O)c1sc(Cl)c(N2CCOCC2)c1[N+](=O)[O-]`: the percent span inhibition result was “inactive”.

Regarding `Cc1nnc(NCc2n[nH]c(=O)c3ccccc23)c2ccccc12`, the percent span inhibition result is “inactive”.

With `CNC(CC(=O)c1ccc([N+](=O)[O-])cc1)C(Cl)(Cl)Cl` (stereo not drawn), the percent span inhibition entry is “inactive”.

`Cn1cc(CN2C[C@]3(C)C[C@H]2CC(C)(C)C3)c(-c2ccc3c(c2)OCCO3)n1`: the percent span inhibition entry is “inactive”.

In the case of `Cc1nc(=S)c2ccccc2[nH]1`, the percent span inhibition result was “inactive”.

In the case of `CC(C)CNC(=O)c1cccc(NC(=O)c2ccc(Cl)c([N+](=O)[O-])c2)c1`, the percent span inhibition result is “inactive”.

Consider `Cc1cc(N2CCN(C)CC2)nc2ccc(NC(=S)N3CCN(c4cccc(Cl)c4)CC3)cc12`, for which the percent span inhibition entry is “inactive”.

For `COc1ccccc1NC(=O)CSc1nnc(-c2ccco2)n1Cc1ccco1`, the percent span inhibition entry is “inactive”.

For the molecule `Cn1c(=O)c(C(=O)COC(=O)c2cc(-c3ccco3)nc3ccccc23)c(N)n(CC2CC2)c1=O`, the percent span inhibition entry was “inactive”.

For `CCOc1ccccc1C(=O)NC1CC2CCCC(C1)N2C1CC1` (stereo not drawn), the percent span inhibition entry is “inactive”.

On to `Cc1nnc2ccc(-c3cccc(NC(=O)c4ccco4)c3)nn12`, for which the percent span inhibition result is “inactive”.

Regarding `CCn1c(C)nc2cc(C(=O)N/N=C/c3ccc(O)c(O)c3O)ccc21`, the percent span inhibition entry was “inactive”.

As to `O=C(COc1ccc(Br)cc1CNC1CCCCC1)NCCc1ccccc1`, the percent span inhibition entry was “inactive”.

As for `Cc1ccc(-n2c(CSc3nc(C)cc(C)n3)nnc2SCC(=O)NCc2ccco2)cc1`, the percent span inhibition entry was “inactive”.

`CCc1ccc(/C=C/C(=O)c2cc(Br)ccc(=O)c2O)cc1`: the percent span inhibition result was “inactive”.

On to `O=C(C1=NN(c2ccccc2)C2C(=O)N(c3ccccc3)C(=O)C12)c1ccccc1` (stereo not drawn), for which the percent span inhibition result was “inactive”.

On to `CCN1CCN(c2ccc(NC(=O)c3cccc4ncccc34)cc2)CC1`, for which the percent span inhibition entry is “inactive”.

With `CCN1CCN(c2cc(C)c3cc(NC(=S)N4CCN(c5ccccc5)CC4)ccc3n2)CC1`, the percent span inhibition entry was “inactive”.

Consider `CCCCCCc1cc2cc(C(=O)Nc3ccccc3)c(=O)oc2cc1O`, for which the percent span inhibition entry was “inactive”.

On to `COc1cccc2c(SCC(=O)N/N=C/c3ccc(O)cc3O)cc(C)nc12`, for which the percent span inhibition entry is “inactive”.

For `Cc1ccc2c(C)c(C(=O)Nc3nnc(C)s3)oc2c1`, the percent span inhibition result was “inactive”.

Turning to `O=C(Nc1nccs1)c1ccc(COc2ccc(F)cc2)o1`, the percent span inhibition result was “inactive”.

With `Cc1ccc(C)c(/C=C/C(=O)c2ccccc(=O)c2O)c1`, the percent span inhibition result is “inactive”.

`Cn1c(N)c(C(=O)COC(=O)c2cc(-c3ccco3)nc3ccccc23)c(=O)n(C)c1=O`: the percent span inhibition entry is “inactive”.

With `Cc1nn(-c2ccc(Cl)c(Cl)c2)c(C)c1C(=O)O`, the percent span inhibition result is “inactive”.

`COc1ccc(N2C(=O)/C(=C/c3cccs3)NC2=S)cc1`: the percent span inhibition entry is “inactive”.

As for `O=C(N/N=C/c1cccnc1)c1cccc(S(=O)(=O)N2CCCC2)c1`, the percent span inhibition entry was “inactive”.

As to `C#CCn1cc(C=C2C(=O)c3ccccc3C2=O)c2ccccc21`, the percent span inhibition result was “inactive”.

In the case of `CCCCNC(=O)c1ccc2nc(-c3ccco3)c(-c3ccco3)nc2c1`, the percent span inhibition entry is “inactive”.

On to `Cc1ccc(-c2cc(C(=O)Nc3cccnc3)c3ccccc3n2)o1`, for which the percent span inhibition entry was “inactive”.

Consider `O=C(/C=C/c1ccc(-c2ccccc2)o1)c1ccccc1`, for which the percent span inhibition entry was “inactive”.

For the molecule `Cc1onc(-c2ccccc2)c1C(=O)Nc1nnc(COc2ccc(Cl)cc2)s1`, the percent span inhibition result is “inactive”.

As for `CCCCOc1ccc(Cc2c(Cl)nc(SC)nc2N2CCOCC2)cc1`, the percent span inhibition entry was “inactive”.

Regarding `N/C(=N\OC(=O)CCC1CCCC1)c1ccncc1`, the percent span inhibition result is “inactive”.

Regarding `COC(=O)c1ccc(C)c(NC(=O)CCNC(=O)c2ccc([N+](=O)[O-])cc2)c1`, the percent span inhibition entry was “inactive”.

Turning to `CCN(CC)c1ccc(NC(=O)c2ccccc2F)cc1S(=O)(=O)Nc1ccccc1OC`, the percent span inhibition entry was “inactive”.

As for `CN1CCc2cccc3c2[C@H]1Cc1ccc(O)c(O)c1-3`, the percent span inhibition result is “inactive”.

Take `Cc1occc1C(=O)NNC(=S)NCc1ccccc1`: the percent span inhibition result is “inactive”.

Regarding `CCCCOC(=O)c1nc(Cl)c(Cl)c(N)c1Cl`, the percent span inhibition result was “inactive”.

Consider `Cc1ccc(-c2ccc(/C=C3\SC(N4CCOCC4)=NC3=O)o2)cc1`, for which the percent span inhibition entry was “inactive”.

In the case of `COP(=O)(CC(=O)O)c1ccccc1` (stereo not drawn), the percent span inhibition result was “inactive”.

Regarding `CN1CCN(c2ccccc2N)CC1`, the percent span inhibition entry is “inactive”.

Consider `CNC(=O)c1c(N)sc2c1CCCCC2`, for which the percent span inhibition result is “inactive”.

Consider `O=C(O)C1=C[C@H](C2CC2)C[C@H](OCCCCO)O1`, for which the percent span inhibition result is “inactive”.

Take `CNc1nc2ccccc2n1/N=C/c1cccc(OC)c1OC`: the percent span inhibition result is “inactive”.

Consider `Cc1ccc(Nc2nc(C)cs2)cc1`, for which the percent span inhibition result is “inactive”.

Turning to `CC(=O)Nc1ccc(NC2=C(Cl)C(=O)c3ccccc3C2=O)cc1`, the percent span inhibition entry was “inactive”.

In the case of `COc1ccc(CC(=O)Nc2ccc(C(=O)Nc3nccs3)cc2)cc1OC`, the percent span inhibition result is “inactive”.

On to `CN(C)CCNC(=O)C(=O)C1C(=O)Nc2ccccc21` (stereo not drawn), for which the percent span inhibition result was “inactive”.

With `c1cncc(-c2nnc3n2N=C(c2cccs2)CS3)c1`, the percent span inhibition entry was “inactive”.

Turning to `Cc1ccc(-c2cc(-c3ccc(F)cc3)nc(N)c2C#N)o1`, the percent span inhibition entry is “inactive”.

As for `O=C(COc1ccccc1)N1CCN(c2ncnc3c2cnn3-c2ccccc2)CC1`, the percent span inhibition result is “inactive”.

As to `CC(=O)c1ccc2c(c1)C1C=CCC1C(c1ccncc1)N2` (stereo not drawn), the percent span inhibition entry was “inactive”.

Turning to `c1coc(C2=Nc3cccc4cccc(c34)N2)c1`, the percent span inhibition entry was “inactive”.

With `Cc1nc2ncccn2c1-c1csc(Nc2ccccc2)n1`, the percent span inhibition entry was “inactive”.

As to `CCCCC(C(=O)OCC)C(N)Cc1ccc(F)cc1` (stereo not drawn), the percent span inhibition entry was “inactive”.

Regarding `O=C1NC(=O)C2(Cc3c(nc4ccccn4c3=O)N3CCCCCC32)C(=O)N1Cc1ccccc1` (stereo not drawn), the percent span inhibition entry is “inactive”.

Consider `COc1ccc(NC(=O)COc2ncnc3ccccc23)cc1S(=O)(=O)N1CCOCC1`, for which the percent span inhibition entry is “inactive”.

On to `O=C(Cc1ccccc1)OCCNC(=O)c1cccnc1`, for which the percent span inhibition result is “inactive”.

With `c1ccc(Nc2nc(-c3ccncc3)cs2)cc1`, the percent span inhibition entry was “inactive”.

For `CCCCC(=O)Nc1ccc(C(=O)N2CCC(C(=O)OCC)CC2)cc1`, the percent span inhibition result is “inactive”.

`COc1ccc(OC)c(Nc2ccc(C(=O)O)cc2[N+](=O)[O-])c1`: the percent span inhibition entry is “inactive”.

Consider `O=C(COC(=O)c1ccccn1)NC1CCCCC1`, for which the percent span inhibition result is “inactive”.

As to `Fc1ccc(/C=C2\CCCC3=C2NC(=S)NC3c2ccc(F)cc2)cc1` (stereo not drawn), the percent span inhibition entry was “inactive”.

On to `Cc1[nH]nc(SCC(=O)NCc2ccc(F)cc2)c1[N+](=O)[O-]`, for which the percent span inhibition result was “inactive”.

Consider `CCOc1cc(CNc2ccc(N3CCCCC3)cc2)cc(Br)c1OCC(=O)NC(C)(C)C`, for which the percent span inhibition entry is “inactive”.
